Data: the Kinase Knowledgebase extract (Sharma et al. 2016)

Key:
PIK3CD (Human) = PIK3CD (Human) (UniProt O00329); test: Cell-Based Assay; conditions: raji
PIK3CG (human) = PIK3CG (human) (UniProt P48736); test: Enzyme Assay
PIK3CB (Human) = PIK3CB (Human) (UniProt P42338); test: Enzyme Assay
PIK3CA (human) = PIK3CA (human) (UniProt P42336); test: Enzyme Assay
Sequence of PIK3CA (human) (P42336 whole entry, looked up): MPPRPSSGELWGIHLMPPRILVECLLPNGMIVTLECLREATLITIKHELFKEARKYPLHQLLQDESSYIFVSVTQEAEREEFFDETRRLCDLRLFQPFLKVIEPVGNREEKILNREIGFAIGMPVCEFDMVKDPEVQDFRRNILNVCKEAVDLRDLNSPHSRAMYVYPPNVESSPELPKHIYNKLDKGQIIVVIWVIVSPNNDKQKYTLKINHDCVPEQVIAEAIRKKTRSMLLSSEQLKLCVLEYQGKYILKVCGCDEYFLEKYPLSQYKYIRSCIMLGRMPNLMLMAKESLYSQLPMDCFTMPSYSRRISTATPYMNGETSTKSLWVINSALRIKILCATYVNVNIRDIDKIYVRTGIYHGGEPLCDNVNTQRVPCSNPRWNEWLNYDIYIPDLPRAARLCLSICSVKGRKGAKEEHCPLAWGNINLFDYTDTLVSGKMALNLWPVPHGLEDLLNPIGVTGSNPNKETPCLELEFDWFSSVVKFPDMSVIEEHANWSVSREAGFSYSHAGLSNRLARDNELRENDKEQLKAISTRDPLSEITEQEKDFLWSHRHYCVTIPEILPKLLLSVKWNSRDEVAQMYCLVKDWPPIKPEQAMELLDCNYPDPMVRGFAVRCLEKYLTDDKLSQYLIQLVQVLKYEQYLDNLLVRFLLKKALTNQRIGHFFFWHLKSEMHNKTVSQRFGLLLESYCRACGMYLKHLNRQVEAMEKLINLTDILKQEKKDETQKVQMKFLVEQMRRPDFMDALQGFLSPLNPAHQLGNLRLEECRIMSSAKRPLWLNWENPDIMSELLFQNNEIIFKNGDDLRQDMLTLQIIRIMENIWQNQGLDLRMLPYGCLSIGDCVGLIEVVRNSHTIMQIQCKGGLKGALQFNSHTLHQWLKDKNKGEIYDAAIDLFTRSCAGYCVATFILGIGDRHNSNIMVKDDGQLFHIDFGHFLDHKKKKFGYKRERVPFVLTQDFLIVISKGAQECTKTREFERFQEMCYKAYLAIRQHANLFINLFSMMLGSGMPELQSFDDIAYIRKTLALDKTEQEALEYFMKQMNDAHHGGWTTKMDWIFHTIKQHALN

Sequence of PIK3CG (human) (P48736 whole entry, looked up): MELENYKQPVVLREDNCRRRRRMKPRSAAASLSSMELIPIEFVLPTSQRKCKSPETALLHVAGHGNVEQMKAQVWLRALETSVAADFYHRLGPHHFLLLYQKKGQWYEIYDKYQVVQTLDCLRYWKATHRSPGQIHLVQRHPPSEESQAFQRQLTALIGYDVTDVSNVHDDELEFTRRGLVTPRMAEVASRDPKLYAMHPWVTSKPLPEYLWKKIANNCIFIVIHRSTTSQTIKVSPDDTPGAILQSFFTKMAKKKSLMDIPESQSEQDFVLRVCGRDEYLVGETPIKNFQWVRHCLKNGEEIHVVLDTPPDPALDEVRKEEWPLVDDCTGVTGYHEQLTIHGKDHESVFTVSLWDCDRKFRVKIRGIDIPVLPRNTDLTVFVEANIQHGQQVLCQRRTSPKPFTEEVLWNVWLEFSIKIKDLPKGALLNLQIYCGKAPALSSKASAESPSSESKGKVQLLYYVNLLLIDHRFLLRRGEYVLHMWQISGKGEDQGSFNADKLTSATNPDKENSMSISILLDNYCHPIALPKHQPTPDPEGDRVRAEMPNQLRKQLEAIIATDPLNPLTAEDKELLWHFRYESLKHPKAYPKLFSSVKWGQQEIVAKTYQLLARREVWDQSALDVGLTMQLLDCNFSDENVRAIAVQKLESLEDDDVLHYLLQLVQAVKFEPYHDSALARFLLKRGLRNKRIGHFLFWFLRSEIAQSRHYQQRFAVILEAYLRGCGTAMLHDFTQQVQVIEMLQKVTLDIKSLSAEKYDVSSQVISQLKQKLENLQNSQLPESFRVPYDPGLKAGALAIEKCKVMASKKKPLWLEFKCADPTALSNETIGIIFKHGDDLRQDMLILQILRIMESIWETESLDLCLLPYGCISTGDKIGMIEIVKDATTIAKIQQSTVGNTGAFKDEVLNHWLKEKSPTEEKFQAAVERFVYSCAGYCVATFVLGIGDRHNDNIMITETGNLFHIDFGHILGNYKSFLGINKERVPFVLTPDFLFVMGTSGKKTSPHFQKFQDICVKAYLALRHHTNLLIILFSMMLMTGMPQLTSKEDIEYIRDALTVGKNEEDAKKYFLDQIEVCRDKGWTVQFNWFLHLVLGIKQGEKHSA
Sequence of PIK3CB (Human) (P42338 whole entry, looked up): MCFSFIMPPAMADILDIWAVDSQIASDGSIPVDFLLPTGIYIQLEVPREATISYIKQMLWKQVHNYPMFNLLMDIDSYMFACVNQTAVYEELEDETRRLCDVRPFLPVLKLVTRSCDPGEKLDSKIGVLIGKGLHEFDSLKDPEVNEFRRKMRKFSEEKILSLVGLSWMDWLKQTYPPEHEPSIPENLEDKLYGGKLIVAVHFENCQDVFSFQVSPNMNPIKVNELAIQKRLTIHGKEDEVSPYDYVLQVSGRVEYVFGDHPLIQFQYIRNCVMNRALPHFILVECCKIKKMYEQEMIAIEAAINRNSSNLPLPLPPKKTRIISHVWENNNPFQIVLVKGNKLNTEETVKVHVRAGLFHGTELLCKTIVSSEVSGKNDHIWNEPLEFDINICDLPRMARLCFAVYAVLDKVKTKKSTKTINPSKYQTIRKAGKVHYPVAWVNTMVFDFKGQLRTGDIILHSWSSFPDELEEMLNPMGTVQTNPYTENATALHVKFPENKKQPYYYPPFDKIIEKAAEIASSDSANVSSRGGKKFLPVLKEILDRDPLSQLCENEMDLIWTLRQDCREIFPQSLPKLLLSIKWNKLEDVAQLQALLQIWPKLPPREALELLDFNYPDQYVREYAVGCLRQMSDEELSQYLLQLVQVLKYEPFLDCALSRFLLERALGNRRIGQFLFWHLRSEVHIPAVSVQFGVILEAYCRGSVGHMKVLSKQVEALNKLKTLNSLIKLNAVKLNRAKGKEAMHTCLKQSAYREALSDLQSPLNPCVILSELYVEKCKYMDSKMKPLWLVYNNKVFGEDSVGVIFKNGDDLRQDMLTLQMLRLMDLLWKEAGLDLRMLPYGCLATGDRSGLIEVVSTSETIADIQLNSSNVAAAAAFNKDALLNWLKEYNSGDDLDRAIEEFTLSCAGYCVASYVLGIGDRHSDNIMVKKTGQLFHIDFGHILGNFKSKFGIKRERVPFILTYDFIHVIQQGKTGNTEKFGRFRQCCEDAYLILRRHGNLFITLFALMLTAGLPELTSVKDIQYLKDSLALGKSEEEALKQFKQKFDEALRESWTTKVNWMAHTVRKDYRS
Sequence of PIK3CD (Human) (O00329 whole entry, looked up): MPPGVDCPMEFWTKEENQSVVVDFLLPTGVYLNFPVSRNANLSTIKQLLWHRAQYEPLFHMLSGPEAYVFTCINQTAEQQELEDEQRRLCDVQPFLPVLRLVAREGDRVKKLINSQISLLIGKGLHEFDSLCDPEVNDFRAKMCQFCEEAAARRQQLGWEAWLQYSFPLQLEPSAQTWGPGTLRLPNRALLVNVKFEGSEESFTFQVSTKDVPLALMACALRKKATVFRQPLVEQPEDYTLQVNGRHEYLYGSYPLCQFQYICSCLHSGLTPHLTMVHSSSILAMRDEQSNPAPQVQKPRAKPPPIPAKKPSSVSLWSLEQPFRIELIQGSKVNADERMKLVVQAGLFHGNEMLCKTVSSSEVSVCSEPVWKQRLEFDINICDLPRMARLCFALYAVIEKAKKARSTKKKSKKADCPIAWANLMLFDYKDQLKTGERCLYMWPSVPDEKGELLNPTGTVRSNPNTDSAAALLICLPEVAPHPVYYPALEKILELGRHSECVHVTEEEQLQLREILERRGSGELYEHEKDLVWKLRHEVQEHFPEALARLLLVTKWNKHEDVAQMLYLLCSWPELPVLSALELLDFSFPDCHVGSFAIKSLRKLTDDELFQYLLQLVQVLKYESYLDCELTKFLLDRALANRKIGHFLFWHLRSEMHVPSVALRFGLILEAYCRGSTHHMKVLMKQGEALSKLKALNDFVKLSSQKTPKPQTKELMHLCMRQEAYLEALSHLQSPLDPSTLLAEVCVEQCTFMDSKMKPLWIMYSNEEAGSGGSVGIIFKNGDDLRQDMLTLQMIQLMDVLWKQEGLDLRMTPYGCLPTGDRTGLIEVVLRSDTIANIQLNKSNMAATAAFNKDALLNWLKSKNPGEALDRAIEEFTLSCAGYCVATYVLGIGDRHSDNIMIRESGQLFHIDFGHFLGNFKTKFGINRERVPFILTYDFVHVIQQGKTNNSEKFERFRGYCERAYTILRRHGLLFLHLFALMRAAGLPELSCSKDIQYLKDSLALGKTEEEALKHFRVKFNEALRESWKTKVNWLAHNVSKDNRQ

| IC50 (PIK3CD (Human)) [nM] | IC50 (PIK3CG (human)) [nM] | IC50 (PIK3CB (Human)) [nM] | IC50 (PIK3CA (human)) [nM] | Structure (SMILES) |
| --- | --- | --- | --- | --- |
| < 100 | 100 to 1000 | ≥ 10000 | – | CC(=O)Nc1ccc(-c2cccc3cc([C@H](C)NC(=O)c4c(N)nn5cccnc45)n(-c4ccccc4)c(=O)c23)cc1 |
| 100 to 1000 | 100 to 1000 | – | – | C[C@H](NC(=O)c1nc(-c2cccc(S(C)(=O)=O)c2)cnc1N)c1cc2cccc(Cl)c2c(=O)n1-c1ccccc1 |
| < 100 | – | – | ≥ 10000 | C[C@H](NC(=O)c1nc(-c2cccc(S(=O)(=O)NC3CC3)c2)cnc1N)c1cc2cccc(Cl)c2c(=O)n1-c1ccccc1 |
| 100 to 1000 | 100 to 1000 | – | – | C[C@H](NC(=O)c1cnn2cccnc12)c1cc2cccc(C#CCNC(=O)[C@@H]3CCC(=O)N3)c2c(=O)n1-c1ccccc1 |
| < 100 | < 100 | – | – | C[C@H](NC(=O)c1c(N)nn2cccnc12)c1cc2cccc(C#CCNC(=O)[C@H]3CCC(=O)O3)c2c(=O)n1-c1ccccc1 |
| 100 to 1000 | 100 to 1000 | – | ≥ 10000 | C[C@H](NC(=O)c1c(N)nn2cccnc12)c1cc2ccccc2c(=O)n1-c1ccccc1 |
| < 100 | 100 to 1000 | – | – | C[C@H](NC(=O)c1nc(-c2cn[nH]c2)cnc1N)c1cc2cccc(Cl)c2c(=O)n1-c1ccccc1 |
| – | – | – | ≥ 10000 | C[C@H](NC(=O)c1c(N)oc2cccnc12)c1cc2cccc(Cl)c2c(=O)n1-c1ccccc1 |
| < 100 | 100 to 1000 | – | – | C[C@H](NC(=O)c1nc(-c2cccc(S(=O)(=O)NC(C)(C)C)c2)cnc1N)c1cc2cccc(Cl)c2c(=O)n1-c1ccccc1 |
| < 100 | – | ≥ 10000 | – | COc1cc(-c2cccc3cc([C@H](C)NC(=O)c4c(N)nn5cccnc45)n(C)c(=O)c23)ccn1 |
| < 100 | 100 to 1000 | 100 to 1000 | – | CC(C)NS(=O)(=O)c1cccc(-c2cnc(N)c(C(=O)N[C@@H](C)c3cc4cccc(Cl)c4c(=O)n3-c3ccccc3)n2)c1 |
| 100 to 1000 | 100 to 1000 | – | – | C[C@H](NC(=O)c1c(N)nn2cccnc12)c1cc2cccc(C#CCCN)c2c(=O)n1-c1ccccc1 |
| < 100 | 100 to 1000 | – | – | COc1ncc(-c2cccc3cc([C@H](C)NC(=O)c4c(N)nn5cccnc45)n(-c4ccccc4)c(=O)c23)cn1 |
| < 100 | – | – | – | C[C@H](NC(=O)c1cncc2cccnc12)c1cc2cccc(C(F)(F)F)c2c(=O)n1-c1ccccc1 |
| < 100 | < 100 | 100 to 1000 | – | C[C@H](NC(=O)c1nc(-c2cccc(NS(=O)(=O)C3CC3)c2)cnc1N)c1cc2cccc(Cl)c2c(=O)n1-c1ccccc1 |
| < 100 | 100 to 1000 | 100 to 1000 | – | Cc1cc(C)n2nc(N)c(C(=O)N[C@@H](C)c3cc4cccc(Cl)c4c(=O)n3-c3ccccc3)c2n1 |
| < 100 | < 100 | 100 to 1000 | – | C[C@H](NC(=O)c1nc(-c2cccc(NS(C)(=O)=O)c2)cnc1N)c1cc2cccc(Cl)c2c(=O)n1C1CC1 |
| < 100 | 100 to 1000 | 100 to 1000 | – | CNS(=O)(=O)c1cccc(-c2cnc(N)c(C(=O)N[C@@H](C)c3cc4cccc(Cl)c4c(=O)n3-c3ccccc3)n2)c1 |
| < 100 | < 100 | – | – | CC(=O)NCC#Cc1cccc2cc([C@H](C)NC(=O)c3c(N)nn4cccnc34)n(-c3ccccc3)c(=O)c12 |
| 100 to 1000 | – | – | ≥ 10000 | Cc1cnc(N)c(C(=O)N[C@@H](C)c2cc3cccc(Cl)c3c(=O)n2-c2ccccc2)n1 |
| < 100 | 100 to 1000 | 100 to 1000 | – | CC(C)n1c([C@H](C)NC(=O)c2c(N)nn3cccnc23)cc2cccc(Cl)c2c1=O |

| IC50 (PIK3CD (Human)) [nM] | IC50 (PIK3CG (human)) [nM] | IC50 (PIK3CB (Human)) [nM] | IC50 (PIK3CA (human)) [nM] | Structure (SMILES) |
| --- | --- | --- | --- | --- |
| – | – | – | ≥ 10000 | C[C@H](NC(=O)c1nc(-c2cccc(S(=O)(=O)N3CCCC3)c2)cnc1N)c1cc2cccc(Cl)c2c(=O)n1-c1ccccc1 |
| 100 to 1000 | – | – | ≥ 10000 | Cc1ccn2ncc(C(=O)N[C@@H](C)c3cc4cccc(Cl)c4c(=O)n3-c3ccccc3)c2n1 |
| 100 to 1000 | – | – | ≥ 10000 | C[C@H](NC(=O)c1c(N)nn2cccnc12)c1cc2ccsc2c(=O)n1-c1ccccc1 |
| < 100 | – | – | – | C[C@H](NC(=O)c1c(N)nn2cccnc12)c1cc2cccc(Cl)c2c(=O)n1C1CCCCC1 |
| < 100 | 100 to 1000 | ≥ 10000 | – | COc1cc(-c2cccc3cc([C@H](C)NC(=O)c4c(N)nn5ccc(C)nc45)n(-c4ccccc4)c(=O)c23)ccn1 |
| 100 to 1000 | – | – | ≥ 10000 | C[C@H](NC(=O)c1c(N)nn2cccnc12)c1cc2cccc(C=O)c2c(=O)n1-c1ccccc1 |
| < 100 | 100 to 1000 | – | – | C=CC(=O)NCCC#Cc1cccc2cc([C@H](C)NC(=O)c3c(N)nn4cccnc34)n(-c3ccccc3)c(=O)c12 |
| < 100 | 100 to 1000 | ≥ 10000 | – | C[C@H](NC(=O)c1c(N)nn2cccnc12)c1cc2cccc(-c3ccncc3)c2c(=O)n1-c1ccccc1 |
| < 100 | 100 to 1000 | – | ≥ 10000 | C[C@H](NC(=O)c1c(N)nn2cccnc12)c1cc2cccc(C#N)c2c(=O)n1-c1ccccc1 |
| 100 to 1000 | – | – | ≥ 10000 | C[C@H](NC(=O)c1c(N)nn2cccnc12)c1cc2sccc2c(=O)n1-c1ccccc1 |
| < 100 | 100 to 1000 | – | ≥ 10000 | CC(C)Oc1cc(-c2cccc3cc([C@H](C)NC(=O)c4c(N)nn5cccnc45)n(-c4ccccc4)c(=O)c23)ccn1 |
| < 100 | 100 to 1000 | ≥ 10000 | – | CC(=O)Nc1cccc(-c2cccc3cc([C@H](C)NC(=O)c4c(N)nn5cccnc45)n(-c4ccccc4)c(=O)c23)c1 |
| 100 to 1000 | 100 to 1000 | – | – | C[C@H](NC(=O)c1c(N)nn2cccnc12)c1cc2cccc(C#CCNS(C)(=O)=O)c2c(=O)n1-c1ccccc1 |
| – | 100 to 1000 | ≥ 10000 | – | CC(C)Oc1ccc(-c2cnc(N)c(C(=O)N[C@@H](C)c3cc4cccc(Cl)c4c(=O)n3-c3ccccc3)n2)cc1F |
| 100 to 1000 | 100 to 1000 | ≥ 10000 | – | C[C@H](NC(=O)c1c(N)nn2cccnc12)c1cc2cccc(-c3ccccc3)c2c(=O)n1-c1ccccc1 |
| < 100 | 100 to 1000 | ≥ 10000 | – | C[C@H](NC(=O)c1c(N)nn2cccnc12)c1cc2cccc(C#CCCNC(=O)[C@@H]3CCC(=O)O3)c2c(=O)n1-c1ccccc1 |
| 100 to 1000 | – | – | ≥ 10000 | C[C@H](NC(=O)c1nc(-c2cccc(S(=O)(=O)N(C)C)c2)cnc1N)c1cc2cccc(Cl)c2c(=O)n1-c1ccccc1 |
| < 100 | 100 to 1000 | ≥ 10000 | – | C[C@H](NC(=O)c1c(N)nn2cccnc12)c1cc2cccc(-c3cncs3)c2c(=O)n1-c1ccccc1 |
| < 100 | < 100 | – | – | CC#Cc1cccc2cc([C@H](C)NC(=O)c3c(N)nn4cccnc34)n(-c3ccccc3)c(=O)c12 |
| 100 to 1000 | 100 to 1000 | – | – | C[C@H](NC(=O)c1c(N)nn2cccnc12)c1cc2cccc(-c3cccs3)c2c(=O)n1-c1ccccc1 |
| < 100 | 100 to 1000 | – | – | Cc1cccc2cc([C@H](C)NC(=O)c3c(N)nn4cccnc34)n(-c3ccccc3)c(=O)c12 |

| IC50 (PIK3CD (Human)) [nM] | IC50 (PIK3CG (human)) [nM] | IC50 (PIK3CB (Human)) [nM] | IC50 (PIK3CA (human)) [nM] | Structure (SMILES) |
| --- | --- | --- | --- | --- |
| – | 100 to 1000 | ≥ 10000 | – | CC(=O)Nc1ncc(-c2cccc3cc([C@H](C)NC(=O)c4c(N)nn5cccnc45)n(-c4ccccc4)c(=O)c23)s1 |
| < 100 | 100 to 1000 | – | – | COc1cc(-c2cccc3cc([C@H](C)NC(=O)c4c(N)nn5cccnc45)n(-c4ccccc4)c(=O)c23)ccn1 |
| < 100 | 100 to 1000 | – | – | C[C@H](NC(=O)c1c(N)nn2cccnc12)c1cc2cccc(C#CCNC(=O)C3CCCCC3)c2c(=O)n1-c1ccccc1 |
| < 100 | – | – | ≥ 10000 | CC(C)Oc1cc(-c2cccc3nc([C@H](C)NC(=O)c4c(N)nn5cccnc45)n(-c4ccccc4)c(=O)c23)ccn1 |
| 100 to 1000 | 100 to 1000 | ≥ 10000 | – | C[C@H](NC(=O)c1c(N)nn2cccnc12)c1cc2cccc(-c3ccn[nH]3)c2c(=O)n1-c1ccccc1 |
| < 100 | < 100 | 100 to 1000 | – | C[C@H](NC(=O)c1c(N)nn2cccnc12)c1cc2cccc(Cl)c2c(=O)n1-c1ccc(F)cc1 |
| 100 to 1000 | 100 to 1000 | – | – | COc1ccc(-c2cnc(N)c(C(=O)N[C@@H](C)c3cc4cccc(Cl)c4c(=O)n3-c3ccccc3)n2)cc1OC |
| 100 to 1000 | – | – | – | COc1cc(-c2cccc3nc([C@H](C)NC(=O)c4c(N)nn5cccnc45)n(C4CC4)c(=O)c23)ccn1 |
| < 100 | – | – | – | C[C@H](NC(=O)c1cnc2cccnn12)c1cc2cccc(Cl)c2c(=O)n1-c1ccc(F)cc1 |
| < 100 | < 100 | 100 to 1000 | – | C[C@H](NC(=O)c1nc(-c2cccc(NS(C)(=O)=O)c2)cnc1N)c1cc2cccc(Cl)c2c(=O)n1-c1ccccc1 |
| 100 to 1000 | 100 to 1000 | 100 to 1000 | – | C[C@H](NC(=O)c1nc(-c2cccc(S(N)(=O)=O)c2)cnc1N)c1cc2cccc(Cl)c2c(=O)n1-c1ccccc1 |
| 100 to 1000 | 100 to 1000 | ≥ 10000 | – | COc1cc(-c2cccc3cc([C@H](C)NC(=O)c4c(N)nn5cccnc45)n(-c4cccc(F)c4)c(=O)c23)ccn1 |
| 100 to 1000 | < 100 | – | – | C[C@H](NC(=O)c1c(N)nn2cccnc12)c1cc2cccc(Cl)c2c(=O)n1-c1ccc(F)c(F)c1 |
| 100 to 1000 | 100 to 1000 | – | – | C[C@H](NC(=O)c1c(N)nn2cccnc12)c1cc2cccc(C#CCN)c2c(=O)n1-c1ccccc1 |
| < 100 | – | – | – | C[C@H](NC(=O)c1cncc2cccnc12)c1cc2cccc(Cl)c2c(=O)n1-c1ccc(F)cc1 |
| – | 100 to 1000 | – | – | C[C@H](NC(=O)c1c(N)nn2cccnc12)c1c(Br)c2cccc(F)c2c(=O)n1-c1ccccc1 |
| 100 to 1000 | – | – | ≥ 10000 | C[C@H](NC(=O)c1cnn2cccnc12)c1cc2cccc(Cl)c2c(=O)n1-c1ccccc1 |
| < 100 | – | – | ≥ 10000 | CC(NC(=O)c1c(N)nn2cccnc12)c1cc2cccc(Cl)c2nc1-c1ccccc1 (configuration not stated) |
| 100 to 1000 | – | – | ≥ 10000 | CC(C)c1ccn2nc(N)c(C(=O)N[C@@H](C)c3cc4cccc(Cl)c4c(=O)n3-c3ccccc3)c2n1 |
| 100 to 1000 | 100 to 1000 | – | – | C[C@H](NC(=O)c1cnn2cccnc12)c1cc2cccc(Cl)c2c(=O)n1-c1ccc(F)cc1 |
